US12516131B2, “Methods for preventing acute kidney injury” (University of Maryland, Baltimore, priority 2018, dated 2026)
Read-outs that look alike come from different tables or passages of the source.

Key:
[1] = tested on: renal ischemia/reperfusion (RIR) in Wistar rats; test: Example 1: plasma creatinine in rats following renal ischemia/reperfusion (45 min bilateral renal pedicle clamping); assay type: in vivo, rat; conditions: Ouabain infusion (10 μg/kg/day) / Saline injection; n=9; ±SE
Description: FIG. 7. Effect of DIGIFAB on plasma creatinine in rats following renal ischemia/reperfusion (RIR). Normal male Wistar rats were implanted on “Day 0” with a subcutaneous minipump to deliver ouabain (10 μg/kg/day: open symbols) or vehicle (6 μl/day; solid symbols). Beginning on Day 13, half of the ouabain-infused rats and half of the vehicle-infused rats were injected with DigiFab (triangles), and the remainder (circles) were injected with an equal volume of saline: The DigiFab-treated rats received 0.2 ml DigiFab (10 mg/ml) at 15 hr and 6 hr, and 0.1 ml DigiFab 1 hr pre-operatively. […] Plasma creatinine was measured with a commercial creatinine enzymatic assay kit. […] The subsequent decline toward baseline (measured at 72 hrs; i.e., Day 17) was more rapid (i.e., the slope was steeper) in the DigiFab-injected rats than in the saline-injected rats. […]
Male Wistar ICS rats (˜300 g) on normal diet were implanted on “Day 0” with a subcutaneous minipump to deliver ouabain—see FIG. 7—(10 μg/kg/day; open symbols) or vehicle (6 μl/day; solid symbols). […] Plasma creatinine was measured after ultrafiltration with 10K filters using a slightly modified rat creatinine enzymatic assay kit (Crystal Chem, Inc., Elk Grove Village, IL). […] The subsequent decline toward baseline (measured at 72 hrs; i.e., Day 17) was more rapid (i.e., the slope was steeper) in the DigiFab-injected rats than in the saline-injected rats. […]

[2] = rats, cited from earlier work
[3] = Lability of reconstituted/diluted DIGIFAB (ouabain binding capacity after storage), protection by E-64; assay type: physicochemical; conditions: E-64 at final concentration 1 μM in diluted DIGIFAB
Description: To maintain the immuno-neutralizing activity of stored dilute DIGIFAB samples, we tested the effect of the irreversible protease (primarily papain) inhibitor, E-64.

[4] = tested on: ischemia-induced renal injury; conditions: somewhat similar rat model; cited from earlier work

**Q.** Which “Percent Recovery of plasma creatinine toward baseline, 24 to 72 hrs post-op” value [1] does the source give for `C[C@@H]1O[C@@H](O[C@H]2C[C@@H](O)[C@]3(CO)[C@H]4[C@H](O)C[C@]5(C)[C@@H](C6=CC(=O)OC6)CC[C@]5(O)[C@@H]4CC[C@]3(O)C2)[C@H](O)[C@H](O)[C@H]1O` [Ouabain] here?
**A.** 38.6±17.5%

**Q.** What about the “steady state plasma level” value ([2]; ouabain infused chronically at 3 μg/Kg/24 hr) of the same molecule?
**A.** ~1.95 nM

**Q.** What about the “steady state plasma level” value ([2]; ouabain infused chronically at 10 μg/Kg/24 hr) of the same molecule?
**A.** ~2.2 nM

**Q.** And the “steady state plasma level” value ([2]; ouabain infused chronically at 30 μg/Kg/24 hr)?
**A.** ~4.8 nM

**Q.** Which “effect of E-64 on stability of DIGIFAB's ouabain binding capacity” value [3] does the source give for `CC(C)C[C@H](NC(=O)[C@H]1C[C@@H]1C(=O)O)C(=O)NCCCCNC(=N)N` [E-64, (1S,2S)-2-(((S)-1-((4-guanidinobutyl)amino)-4-methyl-1-oxopentan-2-yl)carbamoyl)cyclopropanecarboxylic acid] here?
**A.** markedly improved the stability

**Q.** For `C[C@]12CC[C@H](O)C[C@H]1CC[C@@H]1[C@@H]2CC[C@]2(C)[C@@](O)(c3ccoc3)CC[C@]12O` [rostafuroxin], which “effect on ischemia-induced renal injury” value [4] is on record?
**A.** attenuated ischemia-induced renal injury
